Test results reported in US9278942B2, “Non-steroidal compounds as androgen receptor modulators” (FLX Discoveries Oy, priority 2011, dated 2016).
Like-named read-outs stand apart in the source and are kept apart here.

Key:
human AR [1] = molecular target: T1, human AR (Homo sapiens, UniProt P10275); test: Competitive AR binding assay against [3H]-R1881 in transiently transfected COS-1 cells; settings: compound 13.4 μM, [3H]-R1881 1.34 nM, complete inhibition equals 100%; for inhibition at 13.4 µM: read-out: Inhibition of [3H]-R1881 binding at 1.34 nM ± S.D.
T1 construct: expressed in transfected cells; host or cells: COS-1
T1 sequence (P10275 1-920): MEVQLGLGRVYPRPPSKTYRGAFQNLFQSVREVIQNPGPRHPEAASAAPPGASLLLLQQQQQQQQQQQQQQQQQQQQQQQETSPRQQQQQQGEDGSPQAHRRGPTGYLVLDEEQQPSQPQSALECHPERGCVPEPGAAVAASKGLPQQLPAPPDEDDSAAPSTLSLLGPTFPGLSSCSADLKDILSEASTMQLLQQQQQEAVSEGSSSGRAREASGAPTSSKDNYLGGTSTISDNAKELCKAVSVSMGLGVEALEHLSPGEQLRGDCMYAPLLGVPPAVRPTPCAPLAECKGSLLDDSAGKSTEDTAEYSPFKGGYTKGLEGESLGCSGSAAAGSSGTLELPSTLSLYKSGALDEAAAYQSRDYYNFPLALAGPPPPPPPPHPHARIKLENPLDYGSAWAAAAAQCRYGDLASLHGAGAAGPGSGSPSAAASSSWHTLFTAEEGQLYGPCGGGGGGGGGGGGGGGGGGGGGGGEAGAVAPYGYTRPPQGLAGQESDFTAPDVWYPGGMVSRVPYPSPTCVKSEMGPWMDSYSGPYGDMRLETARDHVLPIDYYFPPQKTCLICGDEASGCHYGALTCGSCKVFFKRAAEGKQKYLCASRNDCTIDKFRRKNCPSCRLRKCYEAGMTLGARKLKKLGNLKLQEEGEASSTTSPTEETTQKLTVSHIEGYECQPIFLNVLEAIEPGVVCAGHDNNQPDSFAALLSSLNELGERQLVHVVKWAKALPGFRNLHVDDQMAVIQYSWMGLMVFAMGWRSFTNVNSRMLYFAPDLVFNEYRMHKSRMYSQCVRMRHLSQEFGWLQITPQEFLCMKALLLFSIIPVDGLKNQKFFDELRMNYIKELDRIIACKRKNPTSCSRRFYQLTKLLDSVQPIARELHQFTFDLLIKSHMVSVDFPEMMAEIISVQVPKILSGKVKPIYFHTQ
Procedure: Competitive AR Binding Assay.
AR binding was measured by a competitive assay against [^3H]-R1881 (PerkinElmer) in transiently transfected COS-1 cells. One day before transfection, COS-1 cells were seeded into 2 ml of DMEM (Dulbecco's modified Eagle medium, Gipco) with 10% dextran-charcoal-treated fetal bovine serum and 0.25% (vol/vol) Penicillin-Streptomysin (Euroclone) at a density of 140×10^3 cells/well. After medium change to DMEM 2.5% FBS, the cells were transfected for 24 hours with 10 ng/well of human AR expression vector pSG5 hAR by using the TransIT method (Micrus Bio TransIT LT1, Transfection Reagent). After 36 hours, the cells where treated with tested compounds using 10000 fold molarities compared to labelled R1881 (1.34 nM). After 2 hours of incubation at 37° C., the medium was removed. The cells were removed from the wells to 150 μl of 1× phosphate buffered saline (PBS), transferred to Eppendorf tubes and centrifuged at 4° C. using 4000×g for 5 min, and then washed twice with 150 μl of PBS. The cell pellets were dissolved to 50 μl of 0.5M NaOH and incubated for 15 min at 56° C., after which the samples (three replicates for each sample compound) were transferred to liquid twinkle tubes with 3 ml of OptiPhase HiSafe 3 twinkle solution (PerkinElmer) and radioactivity of AR-bound [^3H]-R1881 determined. The results were measured with LKB WALLAC 1214 racbeta equipment. The ability of test compounds to bind AR is reported as reduction in bound radioactivity obtained with 1.34 nM [^3H]-R1881.
The results (% inhibition) were calculated as: % inhibition=100−[100×(averagecompound/average[3H]-R1881)].

human AR [2] = molecular target: T1, human AR; test: AR antagonism assay: inhibition of transcriptional activation of AR (Probasin-luc reporter, COS-1 cells); assay type: cell-based; settings: compound 10.0 μM, relative luciferase response: 100% for testosterone (no antiandrogenic effect), 0% for complete antagonism; for remaining activity at 10 µM: COS-1, 18 h, read-out: AR antagonism against 100 nM testosterone ± S.D.
Procedure: Determination of the Antiandrogen Activity.
Testosterone was bought from Sigma Chemical Co. (St. Louis, Mo.) and hydroxyflutamide from Chemos GmbH. One day before transfection, COS-1 cells (from ATCC) were seeded into 1 ml of DMEM (Dulbecco's modified Eagle medium, Gibco) with 10% dextran-charcoal-treated fetal bovine serum and 0.25% (vol/vol) Penicillin-Streptomycin (Euroclone) at a density of 70×10^3 cells/well. After medium change to DMEM 2.5% FBS, the cells were transfected for 24 hours with 10 ng/well of human AR expression vector pSG5-hAR, 100 ng/well of reporter plasmid Probasin-luc, and 10 ng/well of control plasmid pCMV-β-gal by using the TransIT method (Micrus Bio TransIT LT1, Transfection Reagent). After the transfection, the cells received treatment of test compounds giving final concentration of 10 μM for each compound. In the antagonist test the wells were also treated with 100 nM final concentration of testosterone. After 18 hours, the cells were washed, lysed and assayed for luciferase and normalization for β-galactosidase activities and protein concentrations. The cells were washed with 100 μl of cold phosphate buffered saline (PBS) and lysed with 35 μl 1× Reporter lysis Buffer (Promega) and frozen (−70° C.) for 30 minutes. Cell lysates were placed in 1.5-ml propylene tubes and centrifuged at 13200×g for 5 minutes at room temperature. For β-galactosidase assay 10 μl of supernatant from each cell extract was transferred to a 96-well plate (96 well Elisa Microplates, PS, Microcon) and incubated for 10 minutes at 37° C. with 65 μl of reaction mixture consisting 0.76 μl 100×Mg-buffer, 12.5 μl ONPG (4 mg/ml), and 54.3 μl of sodium-phosphate buffer (pH 7). The reaction was stopped with treatment of 125 μl Na2CO3. For luciferase assay 10 μl of the supernatant was transferred to a 96-well plate (Greiner Microlon lumitrac 200) and treated with 30 μl of luciferase assay substrate solution (Promega Luciferase Assay System E1501). For the study of protein concentrations 5 μl of the supernatant was transferred to a 96-well plate (Elisa Microplates, PS, Microcon) and mixed with 200 μl of Bio-rad protein assay reagent. The luciferase activities were measured with Thermo Luminoscan Ascent scanner and the protein concentrations and β-galactosidase activities with Thermo Labsystem Multiscan Ex scanner. Also blank and control samples were measured. During the maintenance, transfection, and treatment with tested compounds the cells were incubated in humidified atmosphere with 5% carbon dioxide at 37° C.

| Compound | Inhibition of [3H]-R1881 binding at 1.34 nM ± S.D. (human AR [1]; Table 3) | AR antagonism against 100 nM testosterone ± S.D. (human AR [2]) | remaining activity at 10 µM (human AR [2]) | also measured |
| --- | --- | --- | --- | --- |
| Fc1ccc(C2=NOC3CCCCCCC23)c(C(F)(F)F)c1 (stereo not shown) [Example 44b, 3-(4-Fluoro-2-trifluoromethyl-phenyl)-3a,4,5,6,7,8,9,9a-octahydro-cycloocta[d]isoxazole] | 85.2 ± 3.8% | 35.6 ± 7.8% | – | – |
| O=[N+]([O-])c1ccc(C2=NOC3CCCCCCC23)c(C(F)(F)F)c1 (stereo not shown) [Example 46a, 3-(4-Nitro-2-trifluoromethyl-phenyl)-3a,4,5,6,7,8,9,9a-octahydro-cycloocta[d]isoxazole] | – | – | 3.1 ± 1.7% | inhibition at 13.4 µM (human AR [1]; Table 3): 86.4 ± 1.8% |
| O=[N+]([O-])c1ccc(C2=NOC3CCCC23)c(C(F)(F)F)c1 (stereo not shown) [Example 22ab, 3-(4-Nitro-2-trifluoromethyl-phenyl)-4,5,6,6a-tetrahydro-3aH-cyclopenta[d]isoxazole] | – | – | 21.8 ± 4.1% | inhibition at 13.4 µM (human AR [1]; Table 3): 89.3 ± 4.7% |
| Fc1ccc(C2=NOC3CCCCCC23)c(C(F)(F)F)c1 (stereo not shown) [Example 40b, 3-(4-Fluoro-2-trifluoromethyl-phenyl)-4,5,6,7,8,8a-hexahydro-3aH-cyclohepta[d]isoxazole] | – | 15.6 ± 0.8% | – | Inhibition of [3H]-R1881 binding at 1.34 nM ± S.D. (human AR [1]; Table 2): 92.2 ± 0.7% |
| N#Cc1ccc(C2=NOC3CCCCCC23)c(C(F)(F)F)c1 (stereo not shown) [Example 91b, 4-(4,5,6,7,8,8a-Hexahydro-3aH-cyclohepta[d]isoxazol-3-yl)-3-trifluoromethyl benzonitrile] | – | 27.2 ± 4.8% | – | Inhibition of [3H]-R1881 binding at 1.34 nM ± S.D. (human AR [1]; Table 2): 87.4 ± 2.7% |
| N#Cc1cccc(C2=NOC3CCCCCC23)c1C(F)(F)F (stereo not shown) [Example 95b, 3-(4,5,6,7,8,8a-Hexahydro-3aH-cyclohepta[d]isoxazol-3-yl)-2-trifluoromethyl-benzonitrile] | 98.1 ± 0.3% | 19.2 ± 2.9% | – | – |
| O=[N+]([O-])c1ccc(C2=NOC3CCCC23)cc1C(F)(F)F (single isomer, unassigned) [Example 21a, 3-(4-Nitro-3-trifluoromethyl-phenyl)-4,5,6,6a-tetrahydro-3aH-cyclopenta[d]isoxazole] | 69.7 ± 4.5% | – | 19.2 ± 6.8% | – |
| N#Cc1cccc(C2=NOC3CCCCCC23)c1C(F)(F)F (stereo not shown) [Example 95a, 3-(4,5,6,7,8,8a-Hexahydro-3aH-cyclohepta[d]isoxazol-3-yl)-2-trifluoromethyl-benzonitrile] | – | – | 14.4 ± 1.9% | inhibition at 13.4 µM (human AR [1]; Table 3): 96.2 ± 0.8% |
| N#Cc1ccc(C2=NOC3CCCC23)cc1C(F)(F)F (single isomer, unassigned) [Example 85a, 4-(4,5,6,6a-Tetrahydro-3aH-cyclopenta[d]isoxazol-3-yl)-2-trifluoromethyl-benzonitrile] | – | 44.9 ± 3.6% | – | inhibition at 13.4 µM (human AR [1]; Table 2): 87.6 ± 0.3% |
| O=[N+]([O-])c1ccc(C2=NOC3CCCC23)cc1C(F)(F)F (single isomer, unassigned) [Example 21b, 3-(4-Nitro-3-trifluoromethyl-phenyl)-4,5,6,6a-tetrahydro-3aH-cyclopenta[d]isoxazole] | 90.9 ± 0.9% | 22.9 ± 4.9% | – | – |
| Fc1ccc(C2=NOC3CCCC23)c(C(F)(F)F)c1 (stereo not shown) [Example 20a, 3-(4-Fluoro-2-trifluoromethyl-phenyl)-4,5,6,6a-tetrahydro-3aH-cyclopenta[d]isoxazole] | – | – | 23.2 ± 0.5% | inhibition at 13.4 µM (human AR [1]; Table 3): 89.3 ± 3.8% |
| Fc1ccc(C2=NOC3CCCC23)c(C(F)(F)F)c1 (stereo not shown) [Example 20b, 3-(4-Fluoro-2-trifluoromethyl-phenyl)-4,5,6,6a-tetrahydro-3aH-cyclopenta[d]isoxazole] | 85.3 ± 2.8% | 37.4 ± 7.3% | – | – |
| c1ccc2c(C3=NOC4CCCCC34)cccc2c1 (single isomer, unassigned) [Example 33b, 3-Naphthalen-1-yl-3a,4,5,6,7,7a-hexahydro-benzo[d]-isoxazole] | – | 100% | – | Inhibition of [3H]-R1881 binding at 1.34 nM ± S.D. (human AR [1]; Table 1): 56.9 ± 4.4% |
| O=[N+]([O-])c1ccc(C2=NOC3CCCCC23)c(C(F)(F)F)c1 (single isomer, unassigned) [Example 38b, 3-(4-Nitro-2-trifluoromethyl-phenyl)-3a,4,5,6,7,7a-hexahydro-benzo-[d]-isoxazole] | – | 75.9 ± 3.7% | – | Inhibition of [3H]-R1881 binding at 1.34 nM ± S.D. (human AR [1]; Table 1): 90.7 ± 0.5% |
| O=[N+]([O-])c1ccc(C2=NOC3CCCCCCC23)cc1C(F)(F)F (stereo not shown) [Example 45ab, 3-(4-Nitro-3-trifluoromethyl-phenyl)-3a,4,5,6,7,8,9,9a-octahydro-cycloocta[d]isoxazole] | – | – | 27.8 ± 1% | inhibition at 13.4 µM (human AR [1]; Table 3): 85.7 ± 3.8% |
| O=[N+]([O-])c1ccc(C2=NOC3CCCCCCC23)c(C(F)(F)F)c1 (stereo not shown) [Example 46b, 3-(4-Nitro-2-trifluoromethyl-phenyl)-3a,4,5,6,7,8,9,9a-octahydro-cycloocta[d]isoxazole] | 90.4 ± 3.8% | 2.2 ± 0.8% | – | – |
| Fc1ccc(C2=NOC3CCCCCC23)cc1C(F)(F)F (stereo not shown) [Example 39ab, 3-(4-Fluoro-3-trifluoromethyl-phenyl)-4,5,6,7,8,8a-hexahydro-3aH-cyclohepta[d]isoxazole] | – | – | 43.8 ± 2.4% | inhibition at 13.4 µM (human AR [1]; Table 2): 55.7 ± 5.8% |
